Experiments:
Assay type in all cases: physicochemical
[1] = Absorption maximum in water
Description: The absorption maxima and the results of the tests (B) to (D) are listed in Table 6 for the dyes of the invention and in Table 7 for the dyes that are state of the art.

[2] = Light fastness of printed samples (density loss after xenon lamp irradiation); settings: for Density loss in %: xenon lamp, total illumination 20 kJoule/cm^2; for light fastness: printed samples, in words
Protocol: (§1) The present invention, as far as it relates to inks, is further illustrated by the following examples using dyes according to our invention described in Tables 1 and 2 and dyes representing the state of the art described in Tables 3 and 4. 100 g of each ink were prepared by heating the necessary amount of dye (3-7 g), glycerol (5 g), tetraethylenglycol (1.1 g). and a biocide solution (Promexal X50, available from Zeneca, Manchester, England) (1.2 g) together with water at a temperature of 50° C. under stirring for one hour. The resulting solution was cooled down to 20° C., pH was adjusted to 7.5 and passed through a Millipore® filter of 0.5 μm pore diameter. The dye quantity was adjusted in a way that the density of the printed images was the same for all dyes.
(§2) 30 g of gelatin with a high isoelectric point (type St 70,810, available from Deutsche Gelatinefabriken, Eberbach, Germany) were dissolved in 360 ml of deionised water. 1 g of a surfactant (Olin 10G, available from Olin Corporation, Norwalk, USA) were added to this solution. Immediately before coating 6.6 g of a solution of 2-(4-dimethyl-carbamoyl-pyridino)-ethanesulfonate (3%) were added and pH was adjusted to 6.5. 100 g/m^2 of this solution was then coated onto a resin coated paper support using a bar coater. The recording medium prepared in this way was dried for 12 hours.
(§3) The inks were then jetted onto this recording medium with an HP560 ink jet printer from Hewlett-Packard. The properties of the printed samples were evaluated later on.
The printed samples were irradiated in an Atlas Ci35A Weather-O-Meter® with a r 6500 W Xenon lamp until a total illumination of 20 kJoule/cm^2 was reached. The density loss was measured with an X-Rite® densitometer. It is expressed as % loss of initial density.

[3] = Color co-ordinates (L*a*b*) of printed samples; settings: for neutral black (color co-ordinates): in words
Protocol: as §1, §2, §3
L*a*b*-values were measured on printed samples using a Gretag SPM 100 spectrometer, available from Gretag AG, Regensdorf, Switzerland.
Black dyes show a neutral hue if the values of a* and b*out of the L*a*b* color co-ordinates are zero.

[4] = Dye solubility in deionised water; settings: for Solubility: deionised water, stirred 1 hour at 50° C., cooled to 20° C., Table 5
Protocol: The dye was dispersed in deionised water and this dispersion was stirred for 1 hour at 50° C. Then the mixture was cooled down to 20° C., centrifuged and filtered. Dye solubility was calculated a) from visible spectral data of the filtered solution or b) based on the dried filter residue.

SMILES: O=S(=O)(O)CCNc1ccc2cc(S(=O)(=O)O)c(N=Nc3ccc(N=Nc4cccc(CO)c4)c4ccc(S(=O)(=O)O)cc34)c(O)c2c1 [Compound 1]
- HD max in water ([1]; Table 6): 582 nm
- HD max in water (second maximum) ([1]; second value of the cell, Table 6): 440 nm

SMILES: O=C(O)c1cccc(N=Nc2ccc(N=Nc3c(S(=O)(=O)O)cc4ccc(NCCS(=O)(=O)O)cc4c3O)c3cc(S(=O)(=O)O)ccc23)c1 [Compound 2]
- Density loss in % ([2]; Table 6): 0%
- L*a*b*-value: L* ([3]; Table 6): 2.1
- L*a*b*-value: a* ([3]; Table 6): 2.0
- L*a*b*-value: b* ([3]; Table 6): 0.3
- HD max in water ([1]; Table 6): 573 nm

SMILES: O=S(=O)(O)CCNc1ccc2cc(S(=O)(=O)O)c(N=Nc3ccc(N=Nc4ccc(S(=O)(=O)O)cc4)c4ccc(S(=O)(=O)O)cc34)c(O)c2c1 [Compound 3]
- Solubility [4]: > 20 g per 100 ml
- solubility compared with previously known dyes 24 and 26 ([4]; in words): considerably higher solubility
- Density loss in % ([2]; Table 6): 5%
- L*a*b*-value: L* ([3]; Table 6): 4.3
- L*a*b*-value: a* ([3]; Table 6): 2.5
- L*a*b*-value: b* ([3]; Table 6): -2.5
- HD max in water ([1]; Table 6): 575 nm

SMILES: O=S(=O)(O)CCNc1ccc2cc(S(=O)(=O)O)c(N=Nc3ccc(N=Nc4ccc(S(=O)(=O)O)cc4)c4cc(S(=O)(=O)O)ccc34)c(O)c2c1 [Compound 4]
- Density loss in % ([2]; Table 6): 7%
- L*a*b*-value: L* ([3]; Table 6): 8.9
- L*a*b*-value: a* ([3]; Table 6): 14.4
- L*a*b*-value: b* ([3]; Table 6): -7.5
- HD max in water ([1]; Table 6): 577 nm

SMILES: O=S(=O)(O)CCNc1ccc2cc(S(=O)(=O)O)c(N=Nc3ccc(N=Nc4ccc(S(=O)(=O)O)cc4)c4ccc(S(=O)(=O)O)cc34)c(O)c2c1 [Compound 5]
- Solubility [4]: 16 g per 100 ml
- light fastness [2]: excellent light fastness
- Density loss in % ([2]; Table 6): 6%
- L*a*b*-value: L* ([3]; Table 6): 7.3
- L*a*b*-value: a* ([3]; Table 6): 2.0
- L*a*b*-value: b* ([3]; Table 6): -2.4
- neutral black (color co-ordinates) [3]: neutral blacks
- HD max in water ([1]; Table 6): 576 nm

SMILES: O=S(=O)(O)CCNc1ccc2cc(S(=O)(=O)O)c(N=Nc3ccc(N=Nc4cccc(S(=O)(=O)O)c4)c4cc(S(=O)(=O)O)ccc34)c(O)c2c1 [Compound 6]
- Density loss in % ([2]; Table 6): 8%
- L*a*b*-value: L* ([3]; Table 6): 7.5
- L*a*b*-value: a* ([3]; Table 6): 14.6
- L*a*b*-value: b* ([3]; Table 6): -6.4
- HD max in water ([1]; Table 6): 573 nm

SMILES: O=C(O)Cc1ccc(N=Nc2ccc(N=Nc3c(S(=O)(=O)O)cc4ccc(NCCS(=O)(=O)O)cc4c3O)c3cc(S(=O)(=O)O)ccc23)cc1 [Compound 7]
- light fastness [2]: excellent light fastness
- Density loss in % ([2]; Table 6): 1%
- L*a*b*-value: L* ([3]; Table 6): 15.5
- L*a*b*-value: a* ([3]; Table 6): 5.2
- L*a*b*-value: b* ([3]; Table 6): -5.9
- neutral black (color co-ordinates) [3]: neutral blacks
- HD max in water ([1]; Table 6): 576 nm

SMILES: O=S(=O)(O)CCNc1ccc2cc(S(=O)(=O)O)c(N=Nc3ccc(N=Nc4ccc(CS(=O)(=O)O)cc4)c4cc(S(=O)(=O)O)ccc34)c(O)c2c1 [Compound 9]
- Density loss in % ([2]; Table 6): 14%
- L*a*b*-value: L* ([3]; Table 6): 22.9
- L*a*b*-value: a* ([3]; Table 6): 11.0
- L*a*b*-value: b* ([3]; Table 6): -5.2
- HD max in water ([1]; Table 6): 575 nm

SMILES: O=P(O)(O)Cc1ccc(N=Nc2ccc(N=Nc3c(S(=O)(=O)O)cc4ccc(NCCS(=O)(=O)O)cc4c3O)c3cc(S(=O)(=O)O)ccc23)cc1 [Compound 10]
- Density loss in % ([2]; Table 6): 13%
- L*a*b*-value: L* ([3]; Table 6): 2.0
- L*a*b*-value: a* ([3]; Table 6): 1.5
- L*a*b*-value: b* ([3]; Table 6): 0.1
- HD max in water ([1]; Table 6): 578 nm

SMILES: O=S(=O)(O)CCNc1ccc2cc(S(=O)(=O)O)c(N=Nc3ccc(N=Nc4ccc(CCO)cc4)c4ccc(S(=O)(=O)O)cc34)c(O)c2c1 [Compound 11]
- Density loss in % ([2]; Table 6): 11%
- L*a*b*-value: L* ([3]; Table 6): 18.3
- L*a*b*-value: a* ([3]; Table 6): 4.2
- L*a*b*-value: b* ([3]; Table 6): -3.1
- HD max in water ([1]; Table 6): 577 nm

SMILES: O=C(O)CCc1ccc(N=Nc2ccc(N=Nc3c(S(=O)(=O)O)cc4ccc(NCCS(=O)(=O)O)cc4c3O)c3cc(S(=O)(=O)O)ccc23)cc1 [Compound 12]
- light fastness [2]: excellent light fastness
- Density loss in % ([2]; Table 6): 4%
- L*a*b*-value: L* ([3]; Table 6): 12.1
- L*a*b*-value: a* ([3]; Table 6): 3.8
- L*a*b*-value: b* ([3]; Table 6): -3.1
- neutral black (color co-ordinates) [3]: neutral blacks
- HD max in water ([1]; Table 6): 576 nm

SMILES: O=C(O)CCc1cccc(N=Nc2ccc(N=Nc3c(S(=O)(=O)O)cc4ccc(NCCS(=O)(=O)O)cc4c3O)c3cc(S(=O)(=O)O)ccc23)c1 [Compound 13]
- Density loss in % ([2]; Table 6): 4%
- HD max in water ([1]; Table 6): 575 nm

SMILES: O=C(O)CCC(NC(=O)c1ccc(N=Nc2ccc(N=Nc3c(S(=O)(=O)O)cc4ccc(NCCS(=O)(=O)O)cc4c3O)c3cc(S(=O)(=O)O)ccc23)cc1)C(=O)O (centres unmarked) [Compound 14]
- Density loss in % ([2]; Table 6): 2%
- L*a*b*-value: L* ([3]; Table 6): 19.5
- L*a*b*-value: a* ([3]; Table 6): 7.5
- L*a*b*-value: b* ([3]; Table 6): 2.4
- HD max in water ([1]; Table 6): 576 nm

SMILES: O=C(O)c1ccc(N=Nc2ccc(N=Nc3c(S(=O)(=O)O)cc4ccc(NCCS(=O)(=O)O)cc4c3O)c3cc(S(=O)(=O)O)ccc23)cc1Cl [Compound 15]
- light fastness [2]: excellent light fastness
- Density loss in % ([2]; Table 6): 8%
- L*a*b*-value: L* ([3]; Table 6): 4.7
- L*a*b*-value: a* ([3]; Table 6): 4.5
- L*a*b*-value: b* ([3]; Table 6): -1.7
- neutral black (color co-ordinates) [3]: neutral blacks
- HD max in water ([1]; Table 6): 590 nm

SMILES: O=C(O)c1cc(N=Nc2ccc(N=Nc3c(S(=O)(=O)O)cc4ccc(NCCS(=O)(=O)O)cc4c3O)c3ccc(S(=O)(=O)O)cc23)cc(C(=O)O)c1 [Compound 17]
- Density loss in % ([2]; Table 6): 2%
- L*a*b*-value: L* ([3]; Table 6): 5.7
- L*a*b*-value: a* ([3]; Table 6): 2.6
- L*a*b*-value: b* ([3]; Table 6): 2.3
- HD max in water ([1]; Table 6): 568 nm

SMILES: O=S(=O)(O)CCNc1ccc2cc(S(=O)(=O)O)c(N=Nc3ccc(N=Nc4cc(Cl)c(S(=O)(=O)O)cc4Cl)c4ccc(S(=O)(=O)O)cc34)c(O)c2c1 [Compound 18]
- light fastness [2]: excellent light fastness
- Density loss in % ([2]; Table 6): 5%
- L*a*b*-value: L* ([3]; Table 6): 3.5
- L*a*b*-value: a* ([3]; Table 6): 4.4
- L*a*b*-value: b* ([3]; Table 6): 0.3
- neutral black (color co-ordinates) [3]: neutral blacks
- HD max in water ([1]; Table 6): 553 nm

SMILES: O=S(=O)(O)CCNc1ccc2cc(S(=O)(=O)O)c(N=Nc3ccc(N=Nc4cc(S(=O)(=O)O)c5cccc(S(=O)(=O)O)c5c4)c4ccc(S(=O)(=O)O)cc34)c(O)c2c1 [Compound 19]
- Density loss in % ([2]; Table 6): 1%
- HD max in water ([1]; Table 6): 581 nm

SMILES: O=S(=O)(O)CCNc1ccc2cc(S(=O)(=O)O)c(N=Nc3ccc(N=Nc4ccc5c(S(=O)(=O)O)cc(S(=O)(=O)O)cc5c4)c4ccc(S(=O)(=O)O)cc34)c(O)c2c1 [Compound 20]
- light fastness [2]: excellent light fastness
- Density loss in % ([2]; Table 6): 3%
- L*a*b*-value: L* ([3]; Table 6): 9.4
- L*a*b*-value: a* ([3]; Table 6): 3.8
- L*a*b*-value: b* ([3]; Table 6): -3.6
- neutral black (color co-ordinates) [3]: neutral blacks
- HD max in water ([1]; Table 6): 582 nm

SMILES: Nc1ccc2cc(S(=O)(=O)O)c(N=Nc3ccc(N=Nc4cccc(C(=O)O)c4)c4ccc(S(=O)(=O)O)cc34)c(O)c2c1 [Compound 23, reference compound]
- Density loss in % ([2]; state of the art dyes, Table 7): 2%
- HD max in water ([1]; state of the art dyes, Table 7): 570 nm

SMILES: Nc1ccc2cc(S(=O)(=O)O)c(N=Nc3ccc(N=Nc4cc(C(=O)O)cc(C(=O)O)c4)c4ccc(S(=O)(=O)O)cc34)c(O)c2c1 [Compound 24, reference compound]
- Solubility [4]: 12 g per 100 ml
- L*a*b*-value: L* ([3]; state of the art dyes, Table 7): 27.0
- L*a*b*-value: a* ([3]; state of the art dyes, Table 7): -0.7
- L*a*b*-value: b* ([3]; state of the art dyes, Table 7): -8.8
- HD max in water ([1]; state of the art dyes, Table 7): 571 nm

SMILES: Nc1ccc2cc(S(=O)(=O)O)c(N=Nc3ccc(N=Nc4cc(C(=O)O)cc(C(=O)O)c4)c4cc(S(=O)(=O)O)ccc34)c(O)c2c1 [Compound 25, reference compound]
- Density loss in % ([2]; state of the art dyes, Table 7): 2%
- L*a*b*-value: L* ([3]; state of the art dyes, Table 7): 10.6
- L*a*b*-value: a* ([3]; state of the art dyes, Table 7): 11.7
- L*a*b*-value: b* ([3]; state of the art dyes, Table 7): -0.6
- HD max in water ([1]; state of the art dyes, Table 7): 556 nm

SMILES: O=C(O)CCNc1ccc2cc(S(=O)(=O)O)c(N=Nc3ccc(N=Nc4ccc(C(=O)O)cc4)c4ccc(S(=O)(=O)O)cc34)c(O)c2c1 [Compound 27, reference compound]
- Density loss in % ([2]; state of the art dyes, Table 7): 12%
- L*a*b*-value: L* ([3]; state of the art dyes, Table 7): 23.7
- L*a*b*-value: a* ([3]; state of the art dyes, Table 7): 15.1
- L*a*b*-value: b* ([3]; state of the art dyes, Table 7): -16.6
- HD max in water ([1]; state of the art dyes, Table 7): 564 nm

SMILES: Nc1ccc2cc(S(=O)(=O)O)cc(O)c2c1N=Nc1ccc(N=Nc2ccc(O)c(C(=O)O)c2)c2ccc(S(=O)(=O)O)cc12 [Compound 28, reference compound]
- L*a*b*-value: L* ([3]; state of the art dyes, Table 7): 18.8
- L*a*b*-value: a* ([3]; state of the art dyes, Table 7): 18.1
- L*a*b*-value: b* ([3]; state of the art dyes, Table 7): -4.1
